{"source": "patent US20260272908A1", "about": "(VANDERBILT UNIVERSITY, priority 2023, published 2026)", "key": {"[1]": {"test_system": "STAT3-target genes", "test": "Quantitative real time-PCR for STAT3 target genes in Meta4 organoids", "assay_type": "cell-based, mouse", "details": "pyrvinium 100 nM", "protocol": "FIG. 3C-3D show the Western blot analysis for p-STAT3 and p-ERK in Meta3 and Meta4 organoids (FIG. 3C) and ratios of p-STAT3/total STAT3 and p-ERK/total ERK (FIG. 3D). […] FIG. 3F-3G show phase-contrast images of Meta4 organoids treated with DMSO, Pyr (100 nM), STAT3-IN-1 (1 μM), Stattic (2 μM), and Cryptotanshinone (CPT) (5 μM) for 3 days (FIG. 3F), and quantitation of organoid diameters before and after treatment (FIG. 3G). FIG. 3H-3I show phase-contrast images of Meta4 organoids treated with DMSO, trametinib (Tra), STAT3-IN-1, combination of Tra and STAT3-IN-1, and Pyr, for 3 days (FIG. 3H), and quantitation of organoid diameters before and after treatment (FIG. 3I). FIG. 3J-3K show western blot for p-STAT3 and p-ERK after treatment of Tra, Pyr, and SSTC3 (FIG. 3J) and ratios of p-STAT3/t-STAT3 and p-ERK/t-ERK (FIG. 3K). […] Relative quantification of each gene expression level was normalized to GAPDH gene expression. Shading scale represents the mRNA expression values. FIG. 3M show representative mRNA of Pim-1 and Cyclin-B1 after treatment. Mean±standard deviation. […] Scale bar=500 μM.\nTwo-tailed Mann-Whitney test."}, "[2]": {"test_system": "p-STAT3^Y705", "test": "Western blot for phospho-STAT3 in hPCO lines", "assay_type": "cell-based, human", "from_the_text": "FIG. 7C-7D show Western blot analysis for p-STAT3 and p-ERK in three Pyr-resistant hPCO lines after Pyr treatment (FIG. 7C) and ratios of p-STAT3/t-STAT3 and p-ERK/t-ERK (FIG. 7D). FIG. 7E-7F show a Western blot for basal p-STAT3 and p-ERK levels in Pyr-sensitive and Pyr-resistant hPCO lines (FIG. 7E), and ratios of p-STAT3/t-STAT3 and p-ERK/t-ERK (FIG. 7F). FIG. 7G-7H show a Western blot for p-STAT3 and p-ERK in hPCO-3 after treatment of trametinib (Tra), Pyr, and their combinations (FIG. 7G), and ratios of p-STAT3/t-STAT3 and p-ERK/t-ERK (FIG. 7H). […] FIG. 7K-7L show phase-contrast images of Pyr-sensitive hPCO-2 treated with DMSO, Pyr, STAT3-IN-1, Sttatic, and Cryptotanshinone (CPT) for 6 days (FIG. 7K) and quantitation of organoid diameters before and after treatment (FIG. 7L). Mean±standard deviation. […]\nTotal proteins were extracted from organoids using radioimmunoprecipitation assay buffer (10 mmol/L Tris-HC, pH 7.2, 150 mmol/L NaCl, 5 mmol/L EDTA, 0.1% sodium dodecyl sulfate, 1.0% Triton X-100, 1% deoxycholate) with protease inhibitors. The protein concentration was measured The Bio-Rad Protein Assay (Bio-Rad Laboratories, Hercules, CA). […] After washes with TBS-T, chemiluminescence was detected with an Amersham Imager 680 instrument (GE Healthcare) after 1 mL of the SuperSignal West Femto Maximum Sensitivity Substrate (ThermoFisher) was applied to the membranes."}}, "data": [{"compound": "Cc1cc(/C=C/c2ccc3cc(N(C)C)ccc3[n+]2C)c(C)n1-c1ccccc1", "note": "[pyrvinium]", "values": [{"measurement": "expression of several STAT3-target genes, including Cyclin B1 and Pim-1", "setting": "[1]", "value": "downregulated"}, {"measurement": "p-STAT3^Y705 levels", "setting": "[2]; three pyrvinium-resistant hPCO lines", "value": "no significant differences"}, {"measurement": "p-STAT3^Y705 levels", "setting": "[2]; three pyrvinium-sensitive hPCO lines", "value": "decreased"}]}]}
